# Laboratory results from paper PMC5942189 (Journal of the American Chemical Society, 2018).
# Experiments:
# [1] = system: multi-drug-resistant Acinetobacter baumannii (Ab) 5075; assay: MIC determination in Mueller-Hinton broth, A. baumannii 5075; assay type: cell-based; conditions: multi-drug-resistant A. baumannii Ab5075; standard Mueller-Hinton broth assay
# [2] = system: E. coli WD101 (isogenic CAMP-resistant mutant, colistin-resistant); assay: MIC determination in Mueller-Hinton broth, E. coli WD101; assay type: cell-based, Escherichia coli; conditions: standard Mueller-Hinton broth assay
# [3] = system: Escherichia coli W3110 (wild-type); assay: MIC determination in Mueller-Hinton broth, E. coli W3110; assay type: cell-based; conditions: standard Mueller-Hinton broth assay
substance,measurement,setting,value
N-AlTRSSRAGLQFPVGRVHRLLRKF-Hy (sidechain bridge or staple) [HyRes buforin],MIC,[1],4 µM
same,MIC,[2],16 µM
same,MIC,[3],8 µM
N-XTRSSRAGLQFPXVGRVHRLLRXK-C [TriAl buforin],MIC,[1],64 µM
N-XTRSSRAGLQFPVGRVHRLLRXK-C [DiHy buforin],MIC,[1],64 µM
